Reference: PMC4076210, “Discovery of Novel AKT Inhibitors with Enhanced Anti-Tumor Effects in Combination with the MEK Inhibitor” (PLoS ONE, 2014)
Read-outs that look alike come from different tables or passages of the source.

Legend:
Test in all cases: Kinase panel
Format in all cases: biochemical
TAO3(h) = biological target: T1, TAO3(h) (Homo sapiens, UniProt Q9H2K8)
T1 construct: purchased Millipore KinaseProfiler
T1 sequence (Q9H2K8 1-898): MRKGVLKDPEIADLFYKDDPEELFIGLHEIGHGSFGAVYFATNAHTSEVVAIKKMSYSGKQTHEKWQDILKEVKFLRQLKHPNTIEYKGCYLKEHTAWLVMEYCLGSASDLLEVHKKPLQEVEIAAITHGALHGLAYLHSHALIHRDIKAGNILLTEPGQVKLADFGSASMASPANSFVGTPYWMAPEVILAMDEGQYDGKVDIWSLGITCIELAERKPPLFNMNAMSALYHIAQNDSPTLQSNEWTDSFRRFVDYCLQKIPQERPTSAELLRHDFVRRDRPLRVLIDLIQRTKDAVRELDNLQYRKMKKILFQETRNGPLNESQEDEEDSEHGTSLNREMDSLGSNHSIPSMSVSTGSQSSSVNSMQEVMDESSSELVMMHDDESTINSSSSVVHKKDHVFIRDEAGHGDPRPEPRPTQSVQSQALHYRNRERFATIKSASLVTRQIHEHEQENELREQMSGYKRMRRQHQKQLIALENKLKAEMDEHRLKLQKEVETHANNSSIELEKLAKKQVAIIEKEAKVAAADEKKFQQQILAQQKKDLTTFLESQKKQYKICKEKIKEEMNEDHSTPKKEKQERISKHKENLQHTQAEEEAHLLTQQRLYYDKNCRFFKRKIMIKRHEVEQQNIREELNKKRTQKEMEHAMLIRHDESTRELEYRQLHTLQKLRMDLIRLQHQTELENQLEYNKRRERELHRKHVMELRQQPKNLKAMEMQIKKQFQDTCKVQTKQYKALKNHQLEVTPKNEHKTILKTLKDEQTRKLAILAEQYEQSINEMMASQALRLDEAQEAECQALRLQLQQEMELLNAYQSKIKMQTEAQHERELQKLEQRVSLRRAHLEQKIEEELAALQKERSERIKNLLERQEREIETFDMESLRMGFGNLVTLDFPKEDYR

SGK2(h) = biological target: T2, SGK2(h) (Homo sapiens, UniProt Q9HBY8)
T2 construct: purchased Millipore KinaseProfiler
T2 sequence (Q9HBY8 1-367): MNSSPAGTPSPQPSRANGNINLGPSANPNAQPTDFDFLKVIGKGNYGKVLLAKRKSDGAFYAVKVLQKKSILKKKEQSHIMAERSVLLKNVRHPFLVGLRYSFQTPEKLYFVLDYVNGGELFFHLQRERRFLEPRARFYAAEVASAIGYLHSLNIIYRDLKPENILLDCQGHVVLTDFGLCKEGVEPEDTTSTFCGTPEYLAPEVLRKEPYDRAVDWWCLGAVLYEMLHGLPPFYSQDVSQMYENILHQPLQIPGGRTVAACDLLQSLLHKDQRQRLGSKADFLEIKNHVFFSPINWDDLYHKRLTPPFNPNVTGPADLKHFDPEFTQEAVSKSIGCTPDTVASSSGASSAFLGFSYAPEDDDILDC

CDK5/p35(h) = biological target: T3, CDK5/p35(h) (Homo sapiens, UniProt Q00535)
T3 construct: purchased Millipore KinaseProfiler

MAPKAP-K3(h) = biological target: T4, MAPKAP-K3(h) (Homo sapiens, UniProt Q16644)
T4 construct: purchased Millipore KinaseProfiler

Pyk2(h) = biological target: T5, Pyk2(h) (Homo sapiens, UniProt Q14289)
T5 construct: purchased Millipore KinaseProfiler

SIK(h) = biological target: T6, SIK(h) (Homo sapiens, UniProt P57059)
T6 construct: purchased Millipore KinaseProfiler

TAK1(h) = biological target: T7, TAK1(h) (Homo sapiens, UniProt O43318)
T7 construct: purchased Millipore KinaseProfiler
T7 sequence (O43318 1-303 limits assumed): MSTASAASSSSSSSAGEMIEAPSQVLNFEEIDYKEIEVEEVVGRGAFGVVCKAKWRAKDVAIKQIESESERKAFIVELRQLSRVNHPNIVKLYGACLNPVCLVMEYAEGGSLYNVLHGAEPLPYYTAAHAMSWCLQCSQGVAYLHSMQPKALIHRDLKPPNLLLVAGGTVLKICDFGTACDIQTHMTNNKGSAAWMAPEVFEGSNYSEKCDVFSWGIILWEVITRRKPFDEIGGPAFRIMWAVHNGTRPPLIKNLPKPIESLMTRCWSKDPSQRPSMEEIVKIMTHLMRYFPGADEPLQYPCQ

DAPK1(h) = biological target: T8, DAPK1(h) (Homo sapiens, UniProt P53355)
T8 construct: purchased Millipore KinaseProfiler

Plk3(h) = biological target: T9, Plk3(h) (Homo sapiens, UniProt Q9H4B4)
T9 construct: purchased Millipore KinaseProfiler

ACK1(h) = biological target: T10, ACK1(h) (Homo sapiens, UniProt Q07912)
T10 construct: purchased Millipore KinaseProfiler

Tie2(Y897S)(h) = biological target: T11, Tie2(Y897S)(h) (Homo sapiens, UniProt Q02763, Y897S)
T11 construct: purchased Millipore KinaseProfiler

EphA5(h) = biological target: T12, EphA5(h) (Homo sapiens, UniProt P54756)
T12 construct: purchased Millipore KinaseProfiler

MKK4(m) = biological target: T13, MKK4(m) (Mus musculus, UniProt P47809)
T13 construct: purchased Millipore KinaseProfiler
T13 sequence (P47809 2-397 limits assumed): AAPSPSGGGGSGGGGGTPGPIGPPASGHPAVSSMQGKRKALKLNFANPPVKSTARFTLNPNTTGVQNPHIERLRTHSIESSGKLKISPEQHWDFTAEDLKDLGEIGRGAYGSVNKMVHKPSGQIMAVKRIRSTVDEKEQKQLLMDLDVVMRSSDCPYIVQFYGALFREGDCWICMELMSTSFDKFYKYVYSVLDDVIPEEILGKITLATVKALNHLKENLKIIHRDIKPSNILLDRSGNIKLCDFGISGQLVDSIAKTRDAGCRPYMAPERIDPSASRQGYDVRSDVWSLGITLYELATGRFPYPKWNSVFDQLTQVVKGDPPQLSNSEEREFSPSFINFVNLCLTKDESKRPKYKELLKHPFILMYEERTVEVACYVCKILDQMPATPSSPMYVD

MEK1(h) = biological target: T14, MEK1(h) (Homo sapiens, UniProt Q02750)
T14 construct: purchased Millipore KinaseProfiler

T4 sequence (Q16644 whole entry): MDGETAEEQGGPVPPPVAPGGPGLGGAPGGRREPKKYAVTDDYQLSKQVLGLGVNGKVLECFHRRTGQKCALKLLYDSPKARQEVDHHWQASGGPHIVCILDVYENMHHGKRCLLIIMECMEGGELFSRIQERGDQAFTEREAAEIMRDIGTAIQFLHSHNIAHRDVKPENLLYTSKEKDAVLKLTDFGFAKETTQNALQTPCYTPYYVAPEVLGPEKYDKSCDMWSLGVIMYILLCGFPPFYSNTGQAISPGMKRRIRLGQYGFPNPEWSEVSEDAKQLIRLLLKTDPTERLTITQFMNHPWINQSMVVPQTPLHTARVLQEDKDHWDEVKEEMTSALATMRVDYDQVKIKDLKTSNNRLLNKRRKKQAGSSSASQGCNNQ
T11 sequence (Q02763 23-1124 Y897S): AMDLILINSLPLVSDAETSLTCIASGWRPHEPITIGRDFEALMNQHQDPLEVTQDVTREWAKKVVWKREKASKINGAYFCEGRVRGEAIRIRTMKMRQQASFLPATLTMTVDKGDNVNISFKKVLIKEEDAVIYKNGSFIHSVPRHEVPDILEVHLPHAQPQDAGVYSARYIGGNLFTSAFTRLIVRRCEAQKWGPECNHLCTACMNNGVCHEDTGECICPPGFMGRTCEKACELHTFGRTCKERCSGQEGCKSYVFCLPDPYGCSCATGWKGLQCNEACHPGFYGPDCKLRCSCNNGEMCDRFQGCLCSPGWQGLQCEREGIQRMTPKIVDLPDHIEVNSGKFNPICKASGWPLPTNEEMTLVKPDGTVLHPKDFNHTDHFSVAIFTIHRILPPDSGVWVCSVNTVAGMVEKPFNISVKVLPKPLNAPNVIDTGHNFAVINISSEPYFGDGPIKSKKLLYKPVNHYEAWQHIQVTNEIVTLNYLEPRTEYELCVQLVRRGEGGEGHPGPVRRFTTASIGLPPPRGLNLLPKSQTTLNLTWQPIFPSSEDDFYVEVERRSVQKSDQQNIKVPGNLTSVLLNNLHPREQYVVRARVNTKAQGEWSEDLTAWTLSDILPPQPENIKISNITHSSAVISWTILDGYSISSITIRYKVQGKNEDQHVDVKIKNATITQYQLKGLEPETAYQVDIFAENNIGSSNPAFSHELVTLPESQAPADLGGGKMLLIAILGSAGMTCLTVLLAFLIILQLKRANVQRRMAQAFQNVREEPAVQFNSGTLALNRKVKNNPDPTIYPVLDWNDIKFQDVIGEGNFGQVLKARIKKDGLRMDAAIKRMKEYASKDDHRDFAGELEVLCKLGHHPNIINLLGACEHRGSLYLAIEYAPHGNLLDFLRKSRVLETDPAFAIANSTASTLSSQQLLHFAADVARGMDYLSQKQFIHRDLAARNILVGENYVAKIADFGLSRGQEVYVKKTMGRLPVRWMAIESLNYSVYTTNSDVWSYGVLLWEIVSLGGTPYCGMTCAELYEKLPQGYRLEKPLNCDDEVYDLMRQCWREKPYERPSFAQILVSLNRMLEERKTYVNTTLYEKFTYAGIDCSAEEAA
T10 sequence (Q07912 whole entry): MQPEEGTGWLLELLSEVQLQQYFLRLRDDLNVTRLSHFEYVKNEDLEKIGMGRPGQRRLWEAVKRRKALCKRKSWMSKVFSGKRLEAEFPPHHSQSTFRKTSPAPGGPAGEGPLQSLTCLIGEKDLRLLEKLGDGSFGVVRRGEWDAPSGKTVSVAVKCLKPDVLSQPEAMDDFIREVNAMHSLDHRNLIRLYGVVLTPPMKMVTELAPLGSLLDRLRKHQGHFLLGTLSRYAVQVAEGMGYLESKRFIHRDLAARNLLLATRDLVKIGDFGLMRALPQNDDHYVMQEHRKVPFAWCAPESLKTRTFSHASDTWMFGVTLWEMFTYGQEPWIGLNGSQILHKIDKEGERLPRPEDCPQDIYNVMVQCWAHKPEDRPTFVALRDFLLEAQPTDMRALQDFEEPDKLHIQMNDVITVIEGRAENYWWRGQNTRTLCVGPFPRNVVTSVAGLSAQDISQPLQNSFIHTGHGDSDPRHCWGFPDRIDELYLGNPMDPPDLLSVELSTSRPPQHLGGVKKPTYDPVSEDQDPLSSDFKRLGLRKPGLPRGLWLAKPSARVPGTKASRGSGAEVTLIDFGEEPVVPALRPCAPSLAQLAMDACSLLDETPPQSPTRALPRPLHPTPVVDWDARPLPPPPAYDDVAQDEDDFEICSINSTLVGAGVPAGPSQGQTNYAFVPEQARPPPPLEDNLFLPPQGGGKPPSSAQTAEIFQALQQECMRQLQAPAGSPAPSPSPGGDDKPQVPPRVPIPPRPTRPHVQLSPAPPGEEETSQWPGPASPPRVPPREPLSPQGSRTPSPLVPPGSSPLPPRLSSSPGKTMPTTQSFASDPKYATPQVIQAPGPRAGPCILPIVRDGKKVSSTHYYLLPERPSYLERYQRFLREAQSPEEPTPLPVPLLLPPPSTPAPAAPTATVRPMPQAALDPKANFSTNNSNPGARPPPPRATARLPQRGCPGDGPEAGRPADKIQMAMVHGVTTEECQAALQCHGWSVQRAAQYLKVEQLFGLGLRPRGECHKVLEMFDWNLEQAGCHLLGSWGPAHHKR
T6 sequence (P57059 whole entry): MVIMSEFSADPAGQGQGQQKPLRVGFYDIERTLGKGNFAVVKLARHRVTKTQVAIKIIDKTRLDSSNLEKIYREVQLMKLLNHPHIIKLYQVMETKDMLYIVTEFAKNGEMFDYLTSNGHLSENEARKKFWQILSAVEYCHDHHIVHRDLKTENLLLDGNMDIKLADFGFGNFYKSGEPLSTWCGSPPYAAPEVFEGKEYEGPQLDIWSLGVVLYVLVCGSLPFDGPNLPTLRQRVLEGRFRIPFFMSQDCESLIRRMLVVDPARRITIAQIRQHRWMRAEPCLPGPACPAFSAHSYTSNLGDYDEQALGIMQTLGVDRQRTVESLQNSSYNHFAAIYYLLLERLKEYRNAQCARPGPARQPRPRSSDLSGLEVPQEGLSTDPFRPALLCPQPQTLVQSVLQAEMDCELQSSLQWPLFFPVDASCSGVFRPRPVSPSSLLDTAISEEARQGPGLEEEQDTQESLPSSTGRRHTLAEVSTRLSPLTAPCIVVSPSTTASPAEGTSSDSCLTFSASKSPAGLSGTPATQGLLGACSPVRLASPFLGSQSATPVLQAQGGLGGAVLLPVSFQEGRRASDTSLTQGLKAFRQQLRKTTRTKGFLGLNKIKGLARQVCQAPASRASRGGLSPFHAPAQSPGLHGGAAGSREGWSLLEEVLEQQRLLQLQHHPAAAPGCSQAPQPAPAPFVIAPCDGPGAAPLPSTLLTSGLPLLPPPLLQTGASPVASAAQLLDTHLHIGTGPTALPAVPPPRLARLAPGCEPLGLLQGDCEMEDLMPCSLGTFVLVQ
T8 sequence (P53355 whole entry): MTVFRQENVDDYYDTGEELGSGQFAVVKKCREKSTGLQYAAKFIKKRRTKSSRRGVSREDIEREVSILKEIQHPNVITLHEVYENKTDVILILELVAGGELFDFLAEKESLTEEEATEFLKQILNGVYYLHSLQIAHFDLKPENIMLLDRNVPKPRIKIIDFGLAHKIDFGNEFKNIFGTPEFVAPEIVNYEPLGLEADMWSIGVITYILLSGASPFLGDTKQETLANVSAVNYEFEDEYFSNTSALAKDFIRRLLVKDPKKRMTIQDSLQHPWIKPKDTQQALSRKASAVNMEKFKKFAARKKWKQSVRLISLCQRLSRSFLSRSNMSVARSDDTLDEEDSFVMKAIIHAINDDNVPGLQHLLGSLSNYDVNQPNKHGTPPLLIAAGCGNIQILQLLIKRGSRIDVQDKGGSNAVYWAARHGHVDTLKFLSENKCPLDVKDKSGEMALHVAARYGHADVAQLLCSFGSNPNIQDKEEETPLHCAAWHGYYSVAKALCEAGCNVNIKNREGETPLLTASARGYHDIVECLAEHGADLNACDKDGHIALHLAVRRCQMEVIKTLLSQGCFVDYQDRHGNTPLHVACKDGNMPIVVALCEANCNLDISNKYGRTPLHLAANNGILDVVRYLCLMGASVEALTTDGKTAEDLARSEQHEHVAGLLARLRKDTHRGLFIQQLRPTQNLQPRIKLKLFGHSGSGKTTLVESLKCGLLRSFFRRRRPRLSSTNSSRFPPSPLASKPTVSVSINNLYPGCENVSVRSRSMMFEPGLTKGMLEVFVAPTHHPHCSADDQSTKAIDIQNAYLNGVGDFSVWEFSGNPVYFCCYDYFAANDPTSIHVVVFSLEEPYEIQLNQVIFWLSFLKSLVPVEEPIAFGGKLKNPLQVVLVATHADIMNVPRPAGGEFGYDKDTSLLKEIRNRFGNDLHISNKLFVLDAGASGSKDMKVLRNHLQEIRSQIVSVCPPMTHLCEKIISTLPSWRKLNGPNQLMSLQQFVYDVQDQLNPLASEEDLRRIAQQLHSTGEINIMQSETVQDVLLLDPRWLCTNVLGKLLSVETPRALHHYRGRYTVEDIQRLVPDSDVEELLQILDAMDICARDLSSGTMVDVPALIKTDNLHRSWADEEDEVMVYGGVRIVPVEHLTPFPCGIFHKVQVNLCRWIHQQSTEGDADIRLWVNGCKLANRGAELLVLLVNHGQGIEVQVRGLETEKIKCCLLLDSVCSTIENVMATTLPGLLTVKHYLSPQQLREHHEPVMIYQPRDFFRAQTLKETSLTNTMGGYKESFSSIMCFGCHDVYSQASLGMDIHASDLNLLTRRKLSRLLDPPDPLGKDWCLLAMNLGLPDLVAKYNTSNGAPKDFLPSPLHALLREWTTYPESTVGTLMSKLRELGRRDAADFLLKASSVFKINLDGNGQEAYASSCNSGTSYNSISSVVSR

With `Cn1ncc(Cl)c1-c1cc(C(=O)N[C@H](CN)Cc2cccc(F)c2)sc1Cl` [GSK2110183] the inhibition at 0.5 µM (TAO3(h)) was -2%, the inhibition at 10 µM (TAO3(h)) was 24% and the inhibition at 0.5 µM (SGK2(h)) was 51%. The inhibition at 10 µM (SGK2(h)) was 95%, the inhibition at 0.5 µM (CDK5/p35(h)) was -10% and the inhibition at 10 µM (CDK5/p35(h)) was 17%. It also gave an inhibition at 0.5 µM (MAPKAP-K3(h)) of 4%, an inhibition at 10 µM (MAPKAP-K3(h)) of 10% and an inhibition at 0.5 µM (Pyk2(h)) of -7%. It also gave an inhibition at 10 µM (Pyk2(h)) of 2%, an inhibition at 0.5 µM (SIK(h)) of -6% and an inhibition at 10 µM (SIK(h)) of 16%. The inhibition at 0.5 µM (TAK1(h)) was -3%, the inhibition at 10 µM (TAK1(h)) was 1% and the inhibition at 0.5 µM (DAPK1(h)) was 1%. For the same compound, the inhibition at 10 µM (DAPK1(h)) was 28%, the inhibition at 0.5 µM (Plk3(h)) was -3% and the inhibition at 10 µM (Plk3(h)) was 16%. The inhibition at 0.5 µM (ACK1(h)) was 1%, the inhibition at 10 µM (ACK1(h)) was 8% and the inhibition at 0.5 µM (Tie2(Y897S)(h)) was -5%. The inhibition at 10 µM (Tie2(Y897S)(h)) was -4%, the inhibition at 0.5 µM (EphA5(h)) was 5% and the inhibition at 10 µM (EphA5(h)) was 9%. For the same compound, the inhibition at 0.5 µM (MKK4(m)) was 25%, the inhibition at 10 µM (MKK4(m)) was 57% and the inhibition at 0.5 µM (MEK1(h)) was -1%. For the same compound, the inhibition at 10 µM (MEK1(h)) was 24%.

`Cn1ncc(Cl)c1-c1cc(C(=O)N[C@H](CN)Cc2ccc(F)c(F)c2)oc1Cl` [GSK2141795] showed an inhibition at 0.5 µM (TAO3(h); 0.5 µM, read-out: % Inhibition) of -16%, an inhibition at 10 µM (TAO3(h); 10 µM, read-out: % Inhibition) of -4% and an inhibition at 0.5 µM (SGK2(h); 0.5 µM, read-out: % Inhibition) of 67%. For the same compound, the inhibition at 10 µM (SGK2(h); 10 µM, read-out: % Inhibition) was 97%, the inhibition at 0.5 µM (CDK5/p35(h); 0.5 µM, read-out: % Inhibition) was -14% and the inhibition at 10 µM (CDK5/p35(h); 10 µM, read-out: % Inhibition) was 32%. It also gave an inhibition at 0.5 µM (MAPKAP-K3(h); 0.5 µM, read-out: % Inhibition) of -8%, an inhibition at 10 µM (MAPKAP-K3(h); 10 µM, read-out: % Inhibition) of -2% and an inhibition at 0.5 µM (Pyk2(h); 0.5 µM, read-out: % Inhibition) of 1%. The inhibition at 10 µM (Pyk2(h); 10 µM, read-out: % Inhibition) was 16%, the inhibition at 0.5 µM (SIK(h); 0.5 µM, read-out: % Inhibition) was -4% and the inhibition at 10 µM (SIK(h); 10 µM, read-out: % Inhibition) was 64%. It also gave an inhibition at 0.5 µM (TAK1(h); 0.5 µM, read-out: % Inhibition) of -10%, an inhibition at 10 µM (TAK1(h); 10 µM, read-out: % Inhibition) of -10% and an inhibition at 0.5 µM (DAPK1(h); 0.5 µM, read-out: % Inhibition) of 1%. The inhibition at 10 µM (DAPK1(h); 10 µM, read-out: % Inhibition) was 41%, the inhibition at 0.5 µM (Plk3(h); 0.5 µM, read-out: % Inhibition) was -7% and the inhibition at 10 µM (Plk3(h); 10 µM, read-out: % Inhibition) was 59%. The inhibition at 0.5 µM (ACK1(h); 0.5 µM, read-out: % Inhibition) was -2%, the inhibition at 10 µM (ACK1(h); 10 µM, read-out: % Inhibition) was 0% and the inhibition at 0.5 µM (Tie2(Y897S)(h); 0.5 µM, read-out: % Inhibition) was -4%. The inhibition at 10 µM (Tie2(Y897S)(h); 10 µM, read-out: % Inhibition) was 2%, the inhibition at 0.5 µM (EphA5(h); 0.5 µM, read-out: % Inhibition) was -6% and the inhibition at 10 µM (EphA5(h); 10 µM, read-out: % Inhibition) was 10%. The inhibition at 0.5 µM (MKK4(m); 0.5 µM, read-out: % Inhibition) was 8%, the inhibition at 10 µM (MKK4(m); 10 µM, read-out: % Inhibition) was 36% and the inhibition at 0.5 µM (MEK1(h); 0.5 µM, read-out: % Inhibition) was 0%. For the same compound, the inhibition at 10 µM (MEK1(h); 10 µM, read-out: % Inhibition) was 26%.
